The structures appear in SMILES notation.

The target of the test is IDO1 (Homo sapiens, UniProt P14902). As to the kind of experiment: IDO1 Cellular Assay in HeLa Cells Stimulated with IFNγ. It is filed as cell-based. Conditions: read-out: HeLa Cell Potency, IC50.
Chain of IDO1 (P14902 whole entry): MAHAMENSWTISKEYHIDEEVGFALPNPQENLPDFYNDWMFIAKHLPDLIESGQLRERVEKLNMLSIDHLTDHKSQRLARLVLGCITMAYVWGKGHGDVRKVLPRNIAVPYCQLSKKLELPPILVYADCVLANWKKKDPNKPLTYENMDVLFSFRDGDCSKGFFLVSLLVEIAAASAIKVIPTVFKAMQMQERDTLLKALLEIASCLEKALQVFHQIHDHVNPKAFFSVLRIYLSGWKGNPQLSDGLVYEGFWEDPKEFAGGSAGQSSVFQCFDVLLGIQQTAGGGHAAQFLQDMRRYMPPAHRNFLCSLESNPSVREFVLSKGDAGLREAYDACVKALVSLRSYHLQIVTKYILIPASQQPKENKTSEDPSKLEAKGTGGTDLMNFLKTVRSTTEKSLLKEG
`Cc1cccc(N2CCN(C(=O)Cn3nc(C(=O)N4CCC(O)(CN(C)C)CC4)c4c3CCC4)CC2)c1C` [Example 113, 2-[3-{4-[(dimethylamino)methyl]-4-hydroxypiperidine-1-carbonyl}-5,6-dihydrocyclopenta[c]pyrazol-1(4H)-yl]-1-[4-(2,3-dimethylphenyl)piperazin-1-yl]ethan-1-one]: the IC50 worked out at 0.372 µM.
Consider `Cc1cccc(N2CCN(C(=O)Cn3nc(C(=O)N4CCC5(CC4)COCC5O)c4c3CCC4)CC2)c1C` (stereo not drawn) [Example 114, 1-[4-(2,3-dimethylphenyl)piperazin-1-yl]-2-[3-(4-hydroxy-2-oxa-8-azaspiro[4.5]decane-8-carbonyl)-5,6-dihydrocyclopenta[c]pyrazol-1(4H)-yl]ethan-1-one], for which the half-maximal inhibitory concentration (IC50) amounted to 0.00633 µM.
The same measure for `Cc1cccc(N2CCN(C(=O)Cn3nc(C(=O)N4[C@@H](C)COC[C@@H]4C)c4c3CCC4)CC2)c1C` [Example 115, 2-{3-[(3S,5S)-3,5-dimethylmorpholine-4-carbonyl]-5,6-dihydrocyclopenta[c]pyrazol-1(4H)-yl}-1-[4-(2,3-dimethylphenyl)piperazin-1-yl]ethan-1-one]: 0.176 µM; for `Cc1cccc(N2CCN(C(=O)Cn3nc(C(=O)N4CC5CCC4CC5)c4c3CCC4)CC2)c1C` [Example 116, 2-[3-(2-azabicyclo[2.2.2]octane-2-carbonyl)-5,6-dihydrocyclopenta[c]pyrazol-1(4H)-yl]-1-[4-(2,3-dimethylphenyl)piperazin-1-yl]ethan-1-one]: 0.0116 µM.
The same measure for `Cc1cccc(N2CCN(C(=O)Cn3nc(C(=O)N4CCN(C(=O)C(C)(C)O)CC4)c4c3CCC4)CC2)c1C` [Example 117, 1-[4-(1-{2-[4-(2,3-dimethylphenyl)piperazin-1-yl]-2-oxoethyl}-1,4,5,6-tetrahydrocyclopenta[c]pyrazole-3-carbonyl)piperazin-1-yl]-2-hydroxy-2-methylpropan-1-one]: 0.0151 µM.
`Cc1cccc(N2CCN(C(=O)Cn3nc(C(=O)N4CCCC(O)CC4)c4c3CCC4)CC2)c1C` (stereo not drawn) [Example 118]: the IC50 was 0.0139 µM.
The figure for `Cc1cccc(N2CCN(C(=O)Cn3nc(C(=O)N4CCC(O)CC4(C)C)c4c3CCC4)CC2)c1C` (stereo not drawn) [Example 119, 1-[4-(2,3-dimethylphenyl)piperazin-1-yl]-2-[3-(4-hydroxy-2,2-dimethylpiperidine-1-carbonyl)-5,6-dihydrocyclopenta[c]pyrazol-1(4H)-yl]ethan-1-one] is 0.0333 µM; for `Cc1cccc(N2CCN(C(=O)Cn3nc(C(=O)N4CCC5(CC4)CC(=O)N(C)C5)c4c3CCC4)CC2)c1C` [Example 121, 8-(1-{2-[4-(2,3-dimethylphenyl)piperazin-1-yl]-2-oxoethyl}-1,4,5,6-tetrahydrocyclopenta[c]pyrazole-3-carbonyl)-2-methyl-2,8-diazaspiro[4.5]decan-3-one] it is 0.0171 µM; for `Cc1cccc(N2CCN(C(=O)Cn3nc(C(=O)N4CC[C@H](CO)[C@H](F)C4)c4c3CCC4)CC2)c1C` [Example 122, 1-[4-(2,3-dimethylphenyl)piperazin-1-yl]-2-{3-[(3S,4R)-3-fluoro-4-(hydroxymethyl)piperidine-1-carbonyl]-5,6-dihydrocyclopenta[c]pyrazol-1(4H)-yl}ethan-1-one] it is 0.0103 µM.
The figure for `Cc1cccc(N2CCN(C(=O)Cn3nc(C(=O)N4CCN(C5CC5)CC4)c4c3CCC4)CC2)c1C` [Example 123, 2-[3-(4-cyclopropylpiperazine-1-carbonyl)-5,6-dihydrocyclopenta[c]pyrazol-1(4H)-yl]-1-[4-(2,3-dimethylphenyl)piperazin-1-yl]ethan-1-one] is 0.0101 µM.
The same measure for `Cc1cccc(N2CCN(C(=O)Cn3nc(C(=O)N4CC5C(CO)C5C4)c4c3CCC4)CC2)c1C` (stereo not drawn) [Example 131, 1-[4-(2,3-dimethylphenyl)piperazin-1-yl]-2-{3-[6-(hydroxymethyl)-3-azabicyclo[3.1.0]hexane-3-carbonyl]-5,6-dihydrocyclopenta[c]pyrazol-1(4H)-yl}ethan-1-one]: 0.0232 µM; for `Cc1cccc(N2CCN(C(=O)Cn3nc(C(=O)N4CCC(n5cncn5)CC4)c4c3CCC4)CC2)c1C` [Example 132, 1-[4-(2,3-dimethylphenyl)piperazin-1-yl]-2-{3-[4-(1H-1,2,4-triazol-1-yl)piperidine-1-carbonyl]-5,6-dihydrocyclopenta[c]pyrazol-1(4H)-yl}ethan-1-one]: 0.00455 µM.
In the case of `Cc1cccc(N2CCN(C(=O)Cn3nc(C(=O)N4CCC5(CC4)NC(=O)NC5=O)c4c3CCC4)CC2)c1C` [Example 133, 8-(1-{2-[4-(2,3-dimethylphenyl)piperazin-1-yl]-2-oxoethyl}-1,4,5,6-tetrahydrocyclopenta[c]pyrazole-3-carbonyl)-1,3,8-triazaspiro[4.5]decane-2,4-dione], the IC50 was 0.141 µM.
On to `CC1=NC2(CCN(C(=O)c3nn(CC(=O)N4CCN(c5cccc(C)c5C)CC4)c4c3CCC4)CC2)C(=O)N1` [Example 134, 8-(1-{2-[4-(2,3-dimethylphenyl)piperazin-1-yl]-2-oxoethyl}-1,4,5,6-tetrahydrocyclopenta[c]pyrazole-3-carbonyl)-2-methyl-1,3,8-triazaspiro[4.5]dec-1-en-4-one], for which the half-inhibitory concentration (IC50) amounted to 0.0158 µM.
`Cc1cccc(N2CCN(C(=O)Cn3nc(C(=O)N4CCC5(CC4)C[C@H](C)OC5=O)c4c3CCC4)CC2)c1C` [Example 135, (3S)-8-(1-{2-[4-(2,3-dimethylphenyl)piperazin-1-yl]-2-oxoethyl}-1,4,5,6-tetrahydrocyclopenta[c]pyrazole-3-carbonyl)-3-methyl-2-oxa-8-azaspiro[4.5]decan-1-one]: the IC50 came out at 0.0385 µM.
The figure for `CNC(=O)C1CCN(C(=O)c2nn(CC(=O)N3CCN(c4cccc(C)c4C)CC3)c3c2CCC3)CC1` [Example 136, 1-(1-{2-[4-(2,3-dimethylphenyl)piperazin-1-yl]-2-oxoethyl}-1,4,5,6-tetrahydrocyclopenta[c]pyrazole-3-carbonyl)-N-methylpiperidine-4-carboxamide] is 0.0212 µM; for `Cc1cccc(N2CCN(C(=O)Cn3nc(C(=O)N4CCC(C(N)=O)CC4)c4c3CCC4)CC2)c1C` [Example 137, 1-(1-{2-[4-(2,3-dimethylphenyl)piperazin-1-yl]-2-oxoethyl}-1,4,5,6-tetrahydrocyclopenta[c]pyrazole-3-carbonyl)piperidine-4-carboxamide] it is 0.0193 µM.
The figure for `Cc1cccc(N2CCN(C(=O)Cn3nc(C(=O)N4CCC(n5nccn5)CC4)c4c3CCC4)CC2)c1C` [Example 138, 1-[4-(2,3-dimethylphenyl)piperazin-1-yl]-2-{3-[4-(2H-1,2,3-triazol-2-yl)piperidine-1-carbonyl]-5,6-dihydrocyclopenta[c]pyrazol-1(4H)-yl}ethan-1-one] is 0.00392 µM; for `Cc1cccc(N2CCN(C(=O)Cn3nc(C(=O)N4CCC(S(C)(=O)=O)CC4)c4c3CCC4)CC2)c1C` [Example 139, 1-[4-(2,3-dimethylphenyl)piperazin-1-yl]-2-{3-[4-(methylsulfonyl)piperidine-1-carbonyl]-5,6-dihydrocyclopenta[c]pyrazol-1(4H)-yl}ethan-1-one] it is 0.00698 µM; for `Cc1cccc(N2CCN(C(=O)Cn3nc(C(=O)N4CCC5(CCC(=O)N5C)CC4)c4c3CCC4)CC2)c1C` [Example 140, 8-(1-{2-[4-(2,3-dimethylphenyl)piperazin-1-yl]-2-oxoethyl}-1,4,5,6-tetrahydrocyclopenta[c]pyrazole-3-carbonyl)-1-methyl-1,8-diazaspiro[4.5]decan-2-one] it is 0.00733 µM.
Regarding `Cc1cccc(N2CCN(C(=O)Cn3nc(C(=O)N4CCC5(CC4)CC5CO)c4c3CCC4)CC2)c1C` (stereo not drawn) [Example 143, 1-[4-(2,3-dimethylphenyl)piperazin-1-yl]-2-{3-[1-(hydroxymethyl)-6-azaspiro[2.5]octane-6-carbonyl]-5,6-dihydrocyclopenta[c]pyrazol-1(4H)-yl}ethan-1-one], the concentration for half-maximal inhibition (IC50) is 0.0019 µM.
The figure for `Cc1cccc(N2CCN(C(=O)Cn3nc(C(=O)N4CCC(C(C)(C)O)CC4)c4c3CCC4)CC2)c1C` [Example 144, 1-[4-(2,3-dimethylphenyl)piperazin-1-yl]-2-{3-[4-(2-hydroxypropan-2-yl)piperidine-1-carbonyl]-5,6-dihydrocyclopenta[c]pyrazol-1(4H)-yl}ethan-1-one] is 0.00158 µM.
The same measure for `Cc1cccc(N2CCN(C(=O)Cn3nc(C(=O)N4CCC(c5cc[nH]n5)CC4)c4c3CCC4)CC2)c1C` [Example 145, 1-[4-(2,3-dimethylphenyl)piperazin-1-yl]-2-{3-[4-(1H-pyrazol-3-yl)piperidine-1-carbonyl]-5,6-dihydrocyclopenta[c]pyrazol-1(4H)-yl}ethan-1-one]: 0.00177 µM.
The same measure for `Cc1cccc(N2CCN(C(=O)Cn3nc(C(=O)N4CCC(O)C(CO)C4)c4c3CCC4)CC2)c1C` (stereo not drawn) [Example 148, 1-[4-(2,3-dimethylphenyl)piperazin-1-yl]-2-{3-[4-hydroxy-3-(hydroxymethyl)piperidine-1-carbonyl]-5,6-dihydrocyclopenta[c]pyrazol-1(4H)-yl}ethan-1-one]: 0.00798 µM; for `Cc1cccc(N2CCN(C(=O)Cn3nc(C(=O)N4CCC(O)C(F)(F)C4)c4c3CCC4)CC2)c1C` (stereo not drawn) [Example 149, 2-[3-(3,3-difluoro-4-hydroxypiperidine-1-carbonyl)-5,6-dihydrocyclopenta[c]pyrazol-1(4H)-yl]-1-[4-(2,3-dimethylphenyl)piperazin-1-yl]ethan-1-one]: 0.00396 µM.
On to `Cc1cccc(N2CCN(C(=O)Cn3nc(C(=O)N4C5CCC4CC(O)C5)c4c3CCC4)CC2)c1C` (stereo not drawn) [Example 150, 1-[4-(2,3-dimethylphenyl)piperazin-1-yl]-2-[3-(3-hydroxy-8-azabicyclo[3.2.1]octane-8-carbonyl)-5,6-dihydrocyclopenta[c]pyrazol-1(4H)-yl]ethan-1-one], for which the concentration for half-maximal inhibition (IC50) worked out at 0.0185 µM.
On to `Cc1cccc(N2CCN(C(=O)Cn3nc(C(=O)N4CC5CCC4CC5O)c4c3CCC4)CC2)c1C` (stereo not drawn) [Example 151, 1-[4-(2,3-dimethylphenyl)piperazin-1-yl]-2-[3-(5-hydroxy-2-azabicyclo[2.2.2]octane-2-carbonyl)-5,6-dihydrocyclopenta[c]pyrazol-1(4H)-yl]ethan-1-one], for which the IC50 is 0.00463 µM.

Values taken from patent publication US12264134B2 (Merck Sharp & Dohme LLC, priority 2018, dated 2025).
